Data on 17 compounds can be found in US20060069123A1, “Substituted dipiperidine CCR2 antagonists” (priority 2004, published 2006).

Experiment [1] deals with THP-1 cells. Briefly: MCP-1 Induced Chemotaxis in THP-1 Cells. In kind it is cell-based. The note with it: THP-1 cells, MCP-1 0.01 μg/mL, 3 hours, read-out: Inhibition of MCP-1 Induced Chemotaxis IC50.
Experiment [2] has as its target T1, CCR2 (Homo sapiens, UniProt P41597).
T1 sequence (P41597 1-360 isoform P41597-2): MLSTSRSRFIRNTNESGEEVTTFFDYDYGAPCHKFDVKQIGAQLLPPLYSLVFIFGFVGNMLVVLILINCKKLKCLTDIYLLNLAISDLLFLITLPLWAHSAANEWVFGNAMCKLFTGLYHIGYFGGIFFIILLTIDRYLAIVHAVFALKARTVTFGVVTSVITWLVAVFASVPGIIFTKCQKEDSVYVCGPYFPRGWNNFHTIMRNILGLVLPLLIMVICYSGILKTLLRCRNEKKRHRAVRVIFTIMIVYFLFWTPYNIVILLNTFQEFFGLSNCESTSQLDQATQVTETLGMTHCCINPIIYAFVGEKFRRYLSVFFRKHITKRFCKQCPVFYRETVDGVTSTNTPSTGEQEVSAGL

Experiment [3] deals with THP-1 cells. The note with it: for IC50: Homo sapiens.
Setting [4] is: THP-1, read-out: Inhibition of MCP-1 Induced Calcium Ion Influx IC50.

The structures appear in SMILES notation. Like-named read-outs stand apart in the source and are kept apart here.

For orientation: IC50 means the point on the concentration scale where inhibition reaches its midpoint. Take `COc1ccc2c(C3CCN(C(CO)C4CCN(C(=O)/C=C/c5cc(F)cc(F)c5)CC4)CC3)c[nH]c2c1` (stereo not drawn) [Cpd 165, (2E)-3-(3,5-difluoro-phenyl)-1-(4-{2-hydroxy-1-[4-(6-methoxy-1H-indol-3-yl)-piperidin-1-yl]-ethyl}-piperidin-1-yl)-propenone]: the IC50 worked out at 25 nM in experiment [1] (Homo sapiens), 80 nM in experiment [2] and 110 nM in experiment [3] (setting [4]).

On to `COc1ccc2[nH]cc(C3CCN(C(CO)C4CCN(C(=O)/C=C/c5cc(F)c(F)c(F)c5)CC4)CC3)c2c1` (stereo not drawn) [Cpd 166, (2E)-1-(4-{2-hydroxy-1-[4-(5-methoxy-1H-indol-3-yl)-piperidin-1-yl]-ethyl}-piperidin-1-yl)-3-(3,4,5-trifluoro-phenyl)-propenone], for which the IC50 in experiment [1] (Homo sapiens) came to 30 nM; in experiment [2], 6 nM; in experiment [3] (setting [4]), 8 nM.

For the compound `O=C(/C=C/c1ccc(Cl)c(Cl)c1)N1CCC(C(CO)N2CCC(c3c[nH]c4ccc(F)cc34)CC2)CC1` (stereo not drawn) [Cpd 168, (2E)-3-(3,4-dichloro-phenyl)-1-(4-{1-[4-(5-fluoro-1H-indol-3-yl)-piperidin-1-yl]-2-hydroxy-ethyl}-piperidin-1-yl)-propenone], the IC50 in experiment [1] (Homo sapiens) stood at 40 nM; in experiment [2] it was 20 nM; in experiment [3] (setting [4]), 10 nM.

As to `O=C(/C=C/c1ccc(F)cc1)N1CCC(C(CO)N2CCC(c3c[nH]c4ccc(F)cc34)CC2)CC1` (stereo not drawn) [Cpd 169, (2E)-1-(4-{1-[4-(5-fluoro-1H-indol-3-yl)-piperidin-1-yl]-2-hydroxy-ethyl}-piperidin-1-yl)-3-(4-fluoro-phenyl)-propenone], the IC50 in experiment [1] (Homo sapiens) came out at 55 nM; in experiment [2] it was 57 nM; in experiment [3] (setting [4]), 170 nM.

Take `O=C(/C=C/c1cc(F)c(F)c(F)c1)N1CCC(C(CO)N2CCC(c3c[nH]c4ccc(F)cc34)CC2)CC1` (stereo not drawn) [Cpd 170, (2E)-1-(4-{1-[4-(5-fluoro-1H-indol-3-yl)-piperidin-1-yl]-2-hydroxy-ethyl}-piperidin-1-yl)-3-(3,4,5-trifluoro-phenyl)-propenone]: the IC50 in experiment [1] (Homo sapiens, THP-1, 3 h) amounted to 9 nM; in experiment [2] (Inhibition of MCP-1 Binding IC50, 125I labeled MCP-1 binding to CCR2, THP-1 cells) it was 40 nM; in experiment [3] (THP-1, read-out: Inhibition of MCP-1 Induced Calcium Ion Influx IC50, THP-1 cells, 0.2 μM MCP-1, FLIPR), 10 nM.

For `O=C(/C=C/c1cc(F)cc(F)c1)N1CCC(C(CO)N2CCC(c3c[nH]c4ccc(F)cc34)CC2)CC1` (stereo not drawn) [Cpd 171, (2E)-3-(3,5-difluoro-phenyl)-1-(4-{1-[4-(5-fluoro-1H-indol-3-yl)-piperidin-1-yl]-2-hydroxy-ethyl}-piperidin-1-yl)-propenone], the figures for the IC50 in experiment [1] (Homo sapiens), in experiment [2] and in experiment [3] (setting [4]) were 6 nM, 4.5 nM and 7 nM, respectively.

Consider `O=C(/C=C/c1ccc(F)c(Br)c1)N1CCC(C(CO)N2CCC(c3c[nH]c4ccc(F)cc34)CC2)CC1` (stereo not drawn) [Cpd 172, (2E)-3-(3-bromo-4-fluoro-phenyl)-1-(4-{1-[4-(5-fluoro-1H-indol-3-yl)-piperidin-1-yl]-2-hydroxy-ethyl}-piperidin-1-yl)-propenone], for which the IC50 in experiment [1] (Homo sapiens) turned out to be 30 nM; in experiment [2], 32 nM; in experiment [3] (setting [4]), 20 nM.

`O=C(/C=C/c1cc(F)cc(F)c1)N1CCC(C(CO)N2CCC(c3n[nH]c4ccccc34)CC2)CC1` (stereo not drawn) [Cpd 173, (2E)-3-(3,5-difluoro-phenyl)-1-(4-{2-hydroxy-1-[4-(1H-indazol-3-yl)-piperidin-1-yl]-ethyl}-piperidin-1-yl)-propenone]: the IC50 was determined as 130 nM in experiment [1] and 430 nM in experiment [2] (read-out: Inhibition of MCP-1 Binding IC50, 125I labeled MCP-1 binding to CCR2, THP-1 cells). For the same compound, the “Inhibition of MCP-1 Induced Calcium Ion Influx, percent inhibition” value in experiment [3] (test concentration of 25 μM, IC50 not obtained) is 21%.

Regarding `O=C(/C=C/c1cc(F)c(F)c(F)c1)N1CCC(C(CO)N2CCC(c3nc4ccccc4[nH]3)CC2)CC1` (stereo not drawn) [Cpd 175, (2E)-1-(4-{1-[4-(1H-benzoimidazol-2-yl)-piperidin-1-yl]-2-hydroxy-ethyl}-piperidin-1-yl)-3-(3,4,5-trifluoro-phenyl)-propenone], the IC50 in experiment [1] (Homo sapiens) is 300 nM; in experiment [2] it was 188 nM; in experiment [3] (setting [4]) it was 2300 nM.

For the compound `O=C(/C=C/c1ccc(Cl)c(Cl)c1)N1CCC(C(CO)N2CCC(c3nc4ccccc4[nH]3)CC2)CC1` (stereo not drawn) [Cpd 176, (2E)-1-(4-{1-[4-(1H-benzoimidazol-2-yl)-piperidin-1-yl]-2-hydroxy-ethyl}-piperidin-1-yl)-3-(3,4-dichloro-phenyl)-propenone], the figures for the IC50 in experiment [1] (Homo sapiens), in experiment [2] and in experiment [3] (setting [4]) were 90 nM, 70 nM and 2610 nM, respectively.

As for `Nc1ccc2[nH]cc(C3CCN(C(C(=O)O)C4CCN(C(=O)/C=C/c5cc(F)c(F)c(F)c5)CC4)CC3)c2n1` (stereo not drawn) [Cpd 178, [4-(5-amino-1H-pyrrolo[3,2-b]pyridin-3-yl)-piperidin-1-yl]-{1-[(2E)-3-(3,4,5-trifluoro-phenyl)-acryloyl]-piperidin-4-yl}-acetic acid], the IC50 in experiment [1] (Homo sapiens) stood at 180 nM; in experiment [2], 90 nM; in experiment [3] (setting [4]) it was 2350 nM.

For the compound `Nc1cc2c(C3CCN(C(C(=O)O)C4CCN(C(=O)/C=C/c5cc(F)c(F)c(F)c5)CC4)CC3)c[nH]c2cn1` (stereo not drawn) [Cpd 179, [4-(5-amino-1H-pyrrolo[2,3-c]pyridin-3-yl)-piperidin-1-yl]-{1-[(2E)-3-(3,4,5-trifluoro-phenyl)-acryloyl]-piperidin-4-yl}-acetic acid], the half-maximal inhibitory concentration (IC50) in experiment [1] (Homo sapiens) came out at 140 nM; in experiment [2], 230 nM; in experiment [3] (setting [4]), 2060 nM.

Turning to `COc1ccc(C2CCN([C@H](CO)C3CCN(C(=O)/C=C/c4cc(F)cc(F)c4)CC3)CC2)cc1` [Cpd 180, (2E)-3-(3,5-difluoro-phenyl)-1-(4-{(1S)-2-hydroxy-1-[4-(4-methoxy-phenyl)-piperidin-1-yl]-ethyl}-piperidin-1-yl)-propenone], the IC50 in experiment [1] (Homo sapiens) came out at 90 nM; in experiment [2], 70 nM; in experiment [3] (setting [4]), 120 nM.

Regarding `COc1ccc(C2CCN([C@@H](CO)C3CCN(C(=O)/C=C/c4cc(F)cc(F)c4)CC3)CC2)cc1` [Cpd 181, (2E)-3-(3,5-difluoro-phenyl)-1-(4-{(1R)-2-hydroxy-1-[4-(4-methoxy-phenyl)-piperidin-1-yl]-ethyl}-1-piperidin-1-yl)-propenone], the IC50 came to 70 nM in experiment [1] (Homo sapiens), 40 nM in experiment [2] and 160 nM in experiment [3] (setting [4]).

As to `O=C(/C=C/c1cc(F)cc(F)c1)N1CCC(C(CO)N2CCC(c3ccncc3)CC2)CC1` (stereo not drawn) [Cpd 182, (2E)-3-(3,5-difluoro-phenyl)-1-{4-[2-hydroxy-1-(3,4,5,6-tetrahydro-2H-[4,4′]bipyridinyl-1-yl)-ethyl]-piperidin-1-yl}-propenone], the IC50 in experiment [1] (Homo sapiens) came out at 350 nM; in experiment [2] it was 330 nM; in experiment [3] (setting [4]), 7870 nM.

`O=C(/C=C/c1cc(F)c(F)c(F)c1)N1CCC(C(CO)N2CCC(c3ccncc3)CC2)CC1` (stereo not drawn) [Cpd 183, (2E)-1-{4-[2-hydroxy-1-(3,4,5,6-tetrahydro-2H-[4,4′]bipyridinyl-1-yl)-ethyl]-piperidin-1-yl}-3-(3,4,5-trifluoro-phenyl)-propenone]: the IC50 worked out at 400 nM in experiment [1] (Homo sapiens), 470 nM in experiment [2] and 9250 nM in experiment [3] (setting [4]).

On to `O=C(/C=C/c1ccc(Cl)c(Cl)c1)N1CCC(C(CO)N2CCC(c3ccncc3)CC2)CC1` (stereo not drawn) [Cpd 185, (2E)-3-(3,4-dichloro-phenyl)-1-{4-[2-hydroxy-1-(3,4,5,6-tetrahydro-2H-[4,4′]bipyridinyl-1-yl)-ethyl]-piperidin-1-yl}-propenone], for which the IC50 in experiment [1] (Homo sapiens) was found to be 340 nM; in experiment [2], 840 nM; in experiment [3] (setting [4]), 4600 nM.
